In patent US7053175B1, “Synthetic peptides useful in biological assays for detecting infections caused by group O HIV-1 viruses” (Bio-Rad Pasteur, priority 1997, dated 2006):
No end group written: not given here.

Legend:
[1] = tested on: serum samples from patients infected with group O HIV-1 retroviruses; assay: Immunoenzymatic test: Test No. 2 (immunoreactivity with diluted sera); assay type: binding, human; settings: solid phase peptide 2 μg/ml; for Number of samples: sera of Table V; for ABSORBANCE (OD): cyclized
Source text: The serum samples from patients infected with group O HIV-1 retroviruses were obtained by the Yaounde Pasteur Centre in Cameroon and were serotyped group O according to the serological algorithm described in AIDS (1977), 11, pp. 445-453. A genotyped sample (Maryland) is obtained from the United States. These samples were previously diluted in negative human serum at the dilutions given in Table V, in order to have a sufficient volume for the different immunoreactivity tests.
The synthetic peptides used were dissolved in water at a concentration of 1 mg/ml (stock solution). For the solid phase sensitization step (“coating”), the procedure was carried out as described for Example 2.
The serum samples were diluted 1/5 with a skimmed milk solution (citrate buffer supplemented with 0.01% of phenol red, 0.25% of chloroform and 0.25% of Kathon®), deposited in the wells of plates and incubated for 30 min at 40° C.
After washing with a Tris-NaCl buffer solution pH 7.4 containing 0.1% of Tween® 20 and 0.001% of sodium merthiolate, 100 μl of a solution of conjugate consisting of horseradish peroxidase-labelled anti-human IgG and IgM goat antibodies, containing as preservative 0.01% of sodium merthiolate, in solution in a citrate buffer solution supplemented with 30% glycerol and 25% normal foetal calf serum, were added to each well of the plates and then they were incubated for 30 min at 40° C.
After washing with a Tris-NaCl buffer solution pH 7.4 containing 0.1% of Tween® 20 and 0.001% of sodium merthiolate, the colour was developed as described in Example 2.
The relative absorbance (OD) (A490-A620) read in each well is proportional to the immunoreactivity of each peptide. It indicates the ability of each peptide to react with the biological sample with which the test is carried out.
The reactivity of the peptides of the invention, peptides No. 10 (14B), No. 11 (18B), No. 12 (19B), No. 14 (21B), No. 15 (22B), No. 16 (23B) all in cyclized form, was compared with that of three homologous synthetic peptides having, as sequence, a portion of the natural sequence of the envelope (env) of a group O HIV-1 retrovirus. These peptides are two peptides derived from the VAU isolate—the peptide VAU 22 AA and the peptide VAU 35 AA—and the peptide MVP 5180 (designated “MVP 5180” in Table V). The peptides VAU 22 AA and VAU 35 AA (whose structure is indicated in Example 2) and the peptide MVP 5180 comprise an immunodominant epitope of gp41.
All these peptides were used in cyclized form. The sequence of the MVP 5180 peptide is the following:
For each peptide tested, the samples were arranged into four classes (a, b, c and d) corresponding to various levels of relative absorbance read at the wavelengths A492-A620: • for a: OD<0.100, • for b: 0.100<OD<0.500, • for c: 0.500<OD<1.000, • for d: OD>1.000, thus making it possible to evaluate the degree of immunoreactivity of the peptides.

[2] = tested on: sera from patients infected with group O HIV-1 retroviruses; assay: Immunoenzymatic test of compositions containing peptides (Example 4); assay type: binding, human; set-up: key: >: signal greater than the reading capacity of the spectrophotometer; settings: single peptide 2 μg/ml or composition 1 μg/ml + 1 μg/ml
Experimental: For this test, the procedure was carried out according to the protocol described in Example 2 and the same sera were used. The microplates used were sensitized either with peptide No. 1 (2B) cyclized, or with peptide No. 3 (4B) cyclized, or with a composition containing these two peptides (1:1 w/w). Into each well, there were deposited either 100 μl of a solution containing 2 μg/ml of peptide No. 1 (2B), or 100 μl of a solution containing 2 μg/ml of peptide No. 3 (4B), or 100 μl of a solution containing 1 μg/ml of peptide No. 1 (2B) and 1 μg/ml of peptide No. 3 (4B).

Sequence: LLNLWGCKNRAICYTSVKWNKT (cysteine pairing not given here) [VAU 22 AA, reference compound]
- Number of samples ([1]; CLASS A (a: OD<0.100)): 7
- Number of samples ([1]; CLASS B (b: 0.100<OD<0.500)): 7
- Number of samples ([1]; CLASS C (c: 0.500<OD<1.000)): 0
- Number of samples ([1]; CLASS D (d: OD>1.000)): 0
- ABSORBANCE (OD) ([1]; serum 258 OUDI at 1/100): 0.100
- ABSORBANCE (OD) ([1]; serum 625 at 1/50): 0.165
- ABSORBANCE (OD) ([1]; serum 3600 at 1/100): 0.058
- ABSORBANCE (OD) ([1]; serum 3613 at ¼00): 0.396
- ABSORBANCE (OD) ([1]; serum 3653 at 1/10): 0.310
- ABSORBANCE (OD) ([1]; serum 4280 at 1/50): 0.021
- ABSORBANCE (OD) ([1]; serum 6111 at 1/100): 0.180
- ABSORBANCE (OD) ([1]; serum DJOU at 1/100): 0.042
- ABSORBANCE (OD) ([1]; serum DO15 at 1/100): 0.075
- ABSORBANCE (OD) ([1]; serum MBASSI at 1/100): 0.257
- ABSORBANCE (OD) ([1]; serum Maryland at ¼00): 0.168
- ABSORBANCE (OD) ([1]; serum NGO at 1/50): 0.040
- ABSORBANCE (OD) ([1]; serum NJEM at 1/100): 0.024
- ABSORBANCE (OD) ([1]; serum WANG at 1/50): 0.041

Sequence: LLSLWGCRGKAVCYTSVQWNET [PEPTIDE No. 1 (2B)]
- ABSORBANCE ([2]; serum 1062): >
- ABSORBANCE ([2]; serum 1702): 1.016
- ABSORBANCE ([2]; serum 1754): >
- ABSORBANCE ([2]; serum 2294): 0.447
- ABSORBANCE ([2]; serum 2352): 0.205
- ABSORBANCE ([2]; serum 2551): >
- ABSORBANCE ([2]; serum 2700): >
- ABSORBANCE ([2]; serum 3016): 0.243
- ABSORBANCE ([2]; serum 3136 (listed twice)): 0.302
- ABSORBANCE ([2]; serum 3235): >
- ABSORBANCE ([2]; serum 3302): 0.386
- ABSORBANCE ([2]; serum 3482): 1.473
- ABSORBANCE ([2]; serum 3600): 2.743
- ABSORBANCE ([2]; serum 3627): 2.910
- ABSORBANCE ([2]; serum 3771): 0.544
- ABSORBANCE ([2]; serum 3891): 2.780
- ABSORBANCE ([2]; serum 3935): 0.307
- ABSORBANCE ([2]; serum 4477*): >
- ABSORBANCE ([2]; serum 4489): >
- ABSORBANCE ([2]; serum 5149): >
- ABSORBANCE ([2]; serum 5270): >
- ABSORBANCE ([2]; serum 5931): >
- ABSORBANCE ([2]; serum 6165): 2.714
- ABSORBANCE ([2]; serum 6198): >
- ABSORBANCE ([2]; serum 6627): >
- ABSORBANCE ([2]; serum 6697): >
- ABSORBANCE ([2]; serum 6891): 0.062
- ABSORBANCE ([2]; serum 6976): >
- ABSORBANCE ([2]; serum 6998): >
- ABSORBANCE ([2]; serum 7258): 2.477
- ABSORBANCE ([2]; serum 7443): >

Sequence: RLLALETFIEENELLNLWGCKNRAICYTSVKWNKT (cysteine pairing not given here) [VAU 35 AA, reference compound]
- Number of samples ([1]; CLASS A (a: OD<0.100)): 11
- Number of samples ([1]; CLASS B (b: 0.100<OD<0.500)): 3
- Number of samples ([1]; CLASS C (c: 0.500<OD<1.000)): 0
- Number of samples ([1]; CLASS D (d: OD>1.000)): 0
- ABSORBANCE (OD) ([1]; serum 258 OUDI at 1/100): 0.058
- ABSORBANCE (OD) ([1]; serum 625 at 1/50): 0.069
- ABSORBANCE (OD) ([1]; serum 3600 at 1/100): 0.025
- ABSORBANCE (OD) ([1]; serum 3613 at ¼00): 0.250
- ABSORBANCE (OD) ([1]; serum 3653 at 1/10): 0.021
- ABSORBANCE (OD) ([1]; serum 4280 at 1/50): 0.013
- ABSORBANCE (OD) ([1]; serum 6111 at 1/100): 0.087
- ABSORBANCE (OD) ([1]; serum DJOU at 1/100): 0.022
- ABSORBANCE (OD) ([1]; serum DO15 at 1/100): 0.036
- ABSORBANCE (OD) ([1]; serum MBASSI at 1/100): 0.120
- ABSORBANCE (OD) ([1]; serum Maryland at ¼00): 0.054
- ABSORBANCE (OD) ([1]; serum NGO at 1/50): 0.055
- ABSORBANCE (OD) ([1]; serum NJEM at 1/100): 0.159
- ABSORBANCE (OD) ([1]; serum WANG at 1/50): 0.025

Sequence: LLSSWGCKGRLVCYTSVQWNET [PEPTIDE No. 3 (4B)]
- ABSORBANCE ([2]; serum 1062): >
- ABSORBANCE ([2]; serum 1702): >
- ABSORBANCE ([2]; serum 1754): >
- ABSORBANCE ([2]; serum 2294): >
- ABSORBANCE ([2]; serum 2352): >
- ABSORBANCE ([2]; serum 2551): >
- ABSORBANCE ([2]; serum 2700): >
- ABSORBANCE ([2]; serum 3016): >
- ABSORBANCE ([2]; serum 3136 (listed twice)): >
- ABSORBANCE ([2]; serum 3235): >
- ABSORBANCE ([2]; serum 3302): >
- ABSORBANCE ([2]; serum 3482): >
- ABSORBANCE ([2]; serum 3600): >
- ABSORBANCE ([2]; serum 3627): >
- ABSORBANCE ([2]; serum 3771): >
- ABSORBANCE ([2]; serum 3891): >
- ABSORBANCE ([2]; serum 3935): >
- ABSORBANCE ([2]; serum 4477*): >
- ABSORBANCE ([2]; serum 4489): >
- ABSORBANCE ([2]; serum 5149): >
- ABSORBANCE ([2]; serum 5270): >
- ABSORBANCE ([2]; serum 5931): >
- ABSORBANCE ([2]; serum 6165): >
- ABSORBANCE ([2]; serum 6198): >
- ABSORBANCE ([2]; serum 6627): >
- ABSORBANCE ([2]; serum 6697): >
- ABSORBANCE ([2]; serum 6891): >
- ABSORBANCE ([2]; serum 6976): >
- ABSORBANCE ([2]; serum 6998): >
- ABSORBANCE ([2]; serum 7258): >
- ABSORBANCE ([2]; serum 7443): >
